Source: patent US20080268445A1, “Ant2 Conditional Knockout Mouse and Methods” (Emory University, priority 2002, published 2008)
“Also recorded” adds a separate entry of the source. *1 amine or outer side, *2 acyl side, *3 side chain or, on linkers, in order; H or OH if unused. Where a SMILES comes first, the peptide text is derived from it. Bridges are numbered along the chain shown (N, C = ends). Roman numbers before positions name the chains, in order. [ ]: non-standard residue; d: D form. Actinocin(9to1) = Cc1c2oc3c(C)ccc(C(=O)[*:1])c3nc-2c(C(=O)[*:2])c(N)c1=O; NMeV = CN[C@H](C(=O)O)C(C)C; Sar = CNCC(=O)O

Columns and labels:
mtPTP [1] = assay: Ca++-activation of the mtPTP in liver mitochondria, irreversible release of TPP+; type: biochemical, mouse
Method: The mitochondria were energized with succinate in the presence of TPP^+. TPP^+ is accumulated into the mitochondrial matrix in proportion to ΔP, and its concentration in the suspension medium is monitored using a TPP^+ sensitive electrode. Aliquots of Ca^++ are then added to the reaction solution, with each addition causing a transient release of TPP^+ as the Ca^++ is taken into the mitochondria at the expense of ΔP. […] At this juncture, ΔP collapses and the mitochondrial TPP^+ is irreversibly released into the suspension medium. The amount of Ca^++ required to cause irreversible release of TPP^+ provides a quantitative measurement of mtPTP sensitivity.
To determine if the ANTs provide a regulatory function for the mtPTP, ANT-deficient and control liver mitochondria were loaded with TPP^+ and then Ca^++ was added in the presence or absence of various mtPTP effectors until the TPP^+ was irreversibly released. The relative levels of Ca^++ required for permeability transition were then compared.
The calcium sensitivity of the mtPTP was calculated from 10 nmol CaCl2 additions to a reaction vessel containing 1 mg of mitochondrial protein in 1.0 ml of 250 mM sucrose, 10 mM MOPS, 2 mM K2HPO4, pH 7.2, and 5 mM succinate. Irreversible release of TPP^+ from the mitochondria was indicative of mtPTP activation.

liver mitochondria = assay: ADP stimulation of respiration in liver mitochondria (oxygen consumption, succinate); type: biochemical, mouse; conditions: liver mitochondria from Ant1−/−, Ant2fl/Y, Alb-Cre (ANT-deficient) animals
Method: FIGS. 6A and 6B show ANT1 and ANT2 expression and respiration of control and ANT-deficient liver mitochondria. Liver mitochondria were isolated from Ant1^−/−, Ant2^fl/Y (ANT-control) or Ant1^−/−, Ant2^fl/Y, Alb-cre (ANT-deficient) mice. FIG. 6A: Western blot analysis using antibodies against ANT1 (left) and ANT2 (right). Heart mitochondria were used as a positive control for the presence of ANT1. ANT1 and ANT2, 30 kDa. FIG. 6B: Oxygen consumption was measured using succinate as substrate in ANT-control (left) and ANT-deficient (right) mitochondria. MITOS, addition of 600 μg of mitochondrial protein. ADP, 125 nmol ADP; FCCP (uncoupler), 75 nM.
Respiration and oxidative phosphorylation enzyme activities were measured polarographically and spectrophotometrically (42). The membrane potential was calculated from the mitochondrial uptake of TPP^+ using a TPP^+ sensitive electrode (44-47). The mtPTP was examined in liver 10-week-old Ant1^−/− or +/+, Ant2^fl/Y, Alb-Cre +/− animals.

mouse hepatocytes = assay: Induction of apoptosis in primary hepatocytes, apoptotic nuclei by Hoechst 33258 staining; type: cell-based; conditions: ANT-deficient and ANT-control hepatocytes; agent alone; 12 h
Method: Primary hepatocytes from ANT-deficient and ANT-control mice were cultured on collagen-coated cover glasses and treated with Fas ligand and Actinomycin D. After 12 h, cells were stained with Hoechst 33258 and images were acquired with a Zeiss Axio-10 fluorescence microscope. Cells with chromatin condensation and nuclei fragmentation were counted as apoptotic.
Hepatocytes were isolated from 12 to 15 month old anesthetized mice, perfused in situ with collagenase-dispase medium (Invitrogen, Carlsbad, Calif.). The hepatocytes were gently released, filtered and cultured on collagen coated cover glasses or plates in Waymouth's MB-752/1 medium containing 27 mM NaHCO3, 2 mM L-glutamine, 10% fetal calf serum, 0.5 μg/ml insulin, 0.5 μg/ml transferrin, 0.5 ng/ml sodium selenate and 100 nM dexamethasone (49). […]
Fas ligand-TNFα+Actinomycin D induced apoptosis was monitored by detection of apoptotic nuclei by staining with 10 μg/ml of Hoechst 33258 (Molecular Probes, Eugene, Oreg.) (9). Br-A23187-induced cell death after 1 h treatment was monitored by measuring the percentage of lactate dehydrogenase (LDH) released into the culture medium as a percentage of the activity in a Triton X-100 total cell lysate.

mtPTP [2] = conditions: ANT-deficient and ANT-control mitochondria; 1 μM FCCP in the presence of Ca++
Method: To determine if the mtPTP could still exist in the absence of ANT, we isolated mitochondria from livers of Ant1^−/−, Ant2^fl/Y, Alb-Cre (ANT-deficient) and Ant1^−/−, Ant2^fl/Y (ANT-control) mice. […] The opening of the pore was monitored by following mitochondrial swelling through decreased light scattering.
Mitochondria (1 mg protein) were incubated in 1.5 ml of the above reaction medium with 16.5 nmol CaCl2. After two minutes 0.1 uM ruthenium red was added followed by FCCP.

[3] = ANT-control (Ant1−/−, Ant2fl/Y) liver mitochondria
[4] = ANT-deficient (Ant1−/−, Ant2fl/Y, Alb-Cre) liver mitochondria

| Molecule | effect on Ca++ activation of the mtPTP (Ca++ required for permeability transition) (mtPTP [1]; [3]) | effect on Ca++ activation of the mtPTP (Ca++ required for permeability transition) (mtPTP [1]; [4]) | other results |
| --- | --- | --- | --- |
| Nc1ncnc2c1ncn2[C@@H]1O[C@H](COP(=O)(O)OP(=O)(O)O)[C@@H](O)[C@H]1O [ADP, adenosine diphosphate] | strongly inhibited | no effect; also recorded: without effect | stimulation of mitochondrial respiration (liver mitochondria): could not be stimulated |
| C=C1[C@@H]2CC[C@H]3[C@]4(C)C[C@H](O[C@@H]5O[C@H](CO)[C@@H](OS(=O)(=O)O)[C@H](OS(=O)(=O)O)[C@H]5OC(=O)CC(C)C)C[C@@H](C(=O)O)[C@H]4CC[C@]3(C2)[C@H]1O [ATR, atractyloside] | activated the mtPTP | no effect |  |
| Cc1c2oc3c(C)ccc(C(=O)N[C@@H]4C(=O)N[C@H](C(C)C)C(=O)N5CCC[C@H]5C(=O)N(C)CC(=O)N(C)[C@@H](C(C)C)C(=O)O[C@@H]4C)c3nc-2c(C(=O)N[C@@H]2C(=O)N[C@H](C(C)C)C(=O)N3CCC[C@H]3C(=O)N(C)CC(=O)N(C)[C@@H](C(C)C)C(=O)O[C@@H]2C)c(N)c1=O [Actinomycin D] (I: T[dV]P[Sar][NMeV] / II: T[dV]P[Sar][NMeV]; ester I:1-I:C, II:1-II:C; linker I:N-II:N via Actinocin(9to1)) |  |  | induction of apoptosis (mouse hepatocytes): did not induce apoptosis |
| CN(C)C(=O)/N=N/C(=O)N(C)C [DIA, diamide] | activated the mtPTP | activated the mtPTP |  |
| N#CC(C#N)=NNc1ccc(OC(F)(F)F)cc1 [FCCP, carbonyl cyanide p-(trifluoromethoxy)phenylhydrazone] |  |  | FCCP-induced mtPTP activation (mitochondrial swelling) (mtPTP [2]): responded equally well |
| CC(C)(C)OO [t-H2O2, Tert-butyl hydroperoxide] | activated the mtPTP | activated the mtPTP |  |
| TNFα |  |  | induction of apoptosis (mouse hepatocytes): did not induce apoptosis |
